ChEMBL document CHEMBL1201862, “PubChem BioAssay data set” (2004)
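Grown in 96-well plates, cells were treated for 48 hours with each compound at five concentrations. Insufficient inhibition: endpoint recorded as highest concentration tested. GI50 marks 50% less growth.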 Active and inactive are the calls of the source. Cut-off read from the data, not from the text of the source: active = GI50 up to about 1.1 µM and inactive = higher.

Tests used:
Assay in all cases: growth of human tumour cells (NCI), 48 h
COLO 205 = tested on: COLO 205
U-251 = tested on: U-251
HOP-92 = tested on: HOP-92
RXF 393 = tested on: RXF 393
SK-MEL-2 = tested on: SK-MEL-2
Malme-3M = tested on: Malme-3M
SW-620 = tested on: SW-620
LOX IMVI = tested on: LOX IMVI
UACC-62 = tested on: UACC-62
OVCAR-4 = tested on: OVCAR-4
M14 = tested on: M14
CAKI-1 = tested on: CAKI-1
OVCAR-8 = tested on: OVCAR-8
SF-268 = tested on: SF-268
NCI-H522 = tested on: NCI-H522
ACHN = tested on: ACHN
SK-MEL-5 = tested on: SK-MEL-5
MOLT-4 = tested on: MOLT-4

Measured: GI50

Cn1c(=O)c(C(=O)NC(=O)NCCCCCOC(=O)CCCCCCCCCCC(=O)OCCCCCNC(=O)NC(=O)c2cn(Cc3ccccc3)c(=O)n(C)c2=O)cn(Cc2ccccc2)c1=O
inactive: COLO 205 > 100 µM | U-251 > 100 µM | HOP-92 71.4 µM | RXF 393 > 100 µM | SK-MEL-2 > 100 µM | Malme-3M > 100 µM | SW-620 > 100 µM | LOX IMVI > 100 µM | UACC-62 > 100 µM | OVCAR-4 > 100 µM | M14 > 100 µM | CAKI-1 > 100 µM | OVCAR-8 > 100 µM | SF-268 > 100 µM | NCI-H522 > 100 µM | ACHN > 100 µM | SK-MEL-5 > 100 µM

O=C(c1ccccc1)N1C2C3CC(OCc4ccccc4)(OCc4ccccc4)C(O3)C21 (configuration not stated)
inactive: COLO 205 > 100 µM | U-251 > 100 µM | HOP-92 > 100 µM | RXF 393 > 100 µM | MOLT-4 > 100 µM | SK-MEL-2 > 100 µM | Malme-3M > 100 µM | SW-620 > 100 µM | LOX IMVI > 100 µM | UACC-62 > 100 µM | OVCAR-4 > 100 µM | M14 > 100 µM | CAKI-1 > 100 µM | OVCAR-8 > 100 µM | SF-268 > 100 µM | NCI-H522 > 100 µM | ACHN > 100 µM | SK-MEL-5 > 100 µM

COC1(C)CNCC(C)(C)NC(=O)C(C)(OC)CNCC(C)(C)NC1=O (configuration not stated)
inactive: COLO 205 > 100 µM | U-251 > 100 µM | HOP-92 > 100 µM | RXF 393 > 100 µM | MOLT-4 > 100 µM | SK-MEL-2 > 100 µM | Malme-3M > 100 µM | SW-620 49.4 µM | LOX IMVI > 100 µM | UACC-62 > 100 µM | OVCAR-4 > 100 µM | M14 > 100 µM | CAKI-1 > 100 µM | OVCAR-8 > 100 µM | SF-268 > 100 µM | NCI-H522 > 100 µM | ACHN > 100 µM | SK-MEL-5 > 100 µM

CC1=CC(O)(c2ccc(-c3ccccc3Cl)cc2)OC1=O (configuration not stated)
inactive: COLO 205 > 100 µM | U-251 > 100 µM | HOP-92 > 100 µM | RXF 393 > 100 µM | MOLT-4 > 100 µM | SK-MEL-2 > 100 µM | Malme-3M > 100 µM | SW-620 > 100 µM | LOX IMVI > 100 µM | UACC-62 > 100 µM | OVCAR-4 > 100 µM | M14 > 100 µM | CAKI-1 > 100 µM | OVCAR-8 > 100 µM | SF-268 > 100 µM | NCI-H522 > 100 µM | ACHN > 100 µM | SK-MEL-5 > 100 µM

CC(=O)c1ccc(NC(=O)C(=O)C(C(=O)/C=C/c2ccccc2)C2OC(=O)c3ccccc32)cc1 (configuration not stated)
inactive: COLO 205 > 100 µM | U-251 83 µM | HOP-92 > 100 µM | RXF 393 > 100 µM | MOLT-4 77.4 µM | SK-MEL-2 > 100 µM | Malme-3M > 100 µM | SW-620 > 100 µM | LOX IMVI > 100 µM | UACC-62 > 100 µM | OVCAR-4 > 100 µM | M14 > 100 µM | CAKI-1 > 100 µM | OVCAR-8 > 100 µM | SF-268 > 100 µM | NCI-H522 > 100 µM | ACHN > 100 µM | SK-MEL-5 > 100 µM

[N-]=[N+]=Nc1ncnc2c1sc(=S)n2-c1ccccc1
inactive: COLO 205 > 100 µM | U-251 > 100 µM | HOP-92 > 100 µM | RXF 393 > 100 µM | MOLT-4 > 100 µM | SK-MEL-2 > 100 µM | Malme-3M > 100 µM | SW-620 > 100 µM | LOX IMVI > 100 µM | UACC-62 > 100 µM | OVCAR-4 > 100 µM | M14 > 100 µM | CAKI-1 > 100 µM | OVCAR-8 > 100 µM | SF-268 > 100 µM | NCI-H522 > 100 µM | ACHN > 100 µM | SK-MEL-5 > 100 µM
